The viability, T/C is the result in the treated group divided by that in the control group, in per cent.
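Further: spheroids exposed to compounds for seven days; 100% = DMSO vehicle control viability.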

The first test concerns 889142-216-R-J1-PDC complex spheroid viability. The experiment in a line: Anticancer human tumor 889142-216-R-J1-PDC patient-derived bladder carcinoma cell line growth inhibition [POLQ]. As to conditions: second compound 0.0316 µM; first compound 3.16 µM; stronger effect = lower value. An outline of the steps:
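Three-cell-type spheroids modelling solid tumor plus stroma served as the readout system; POL inhibitors were tested individually and in combination, concentration ranges set by clinical Cmax where known.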
As to `CC1COCCN1c1cc(C2(S(C)(=N)=O)CC2)nc(-c2ccnc3[nH]ccc23)n1` (configuration not stated) + Nc1ccc(C#CCN(C(=O)Cc2ncc(C(F)(F)F)cc2C(F)(F)F)c2ccc(F)cc2)nn1, the viability, T/C is 46.1%.
In the case of `CCCS(=O)(=O)Nc1ccc(F)c(C(=O)c2c[nH]c3ncc(-c4ccc(Cl)cc4)cc23)c1F` + Nc1ccc(C#CCN(C(=O)Cc2ncc(C(F)(F)F)cc2C(F)(F)F)c2ccc(F)cc2)nn1, the viability, T/C is 71.5%.
Same read-out and setting: the same measure for `O=C(c1cc(Cc2n[nH]c(=O)c3ccccc23)ccc1F)N1CCN(C(=O)C2CC2)CC1` + Nc1ccc(C#CCN(C(=O)Cc2ncc(C(F)(F)F)cc2C(F)(F)F)c2ccc(F)cc2)nn1: 80.1%.

Staying with this test, now noted: second compound 0.0316 µM; first compound 10 µM; stronger effect = lower value.
Turning to `CC1COCCN1c1cc(C2(S(C)(=N)=O)CC2)nc(-c2ccnc3[nH]ccc23)n1` (configuration not stated) + Nc1ccc(C#CCN(C(=O)Cc2ncc(C(F)(F)F)cc2C(F)(F)F)c2ccc(F)cc2)nn1, the viability, T/C is 45%.
For the compound `CCCS(=O)(=O)Nc1ccc(F)c(C(=O)c2c[nH]c3ncc(-c4ccc(Cl)cc4)cc23)c1F` + Nc1ccc(C#CCN(C(=O)Cc2ncc(C(F)(F)F)cc2C(F)(F)F)c2ccc(F)cc2)nn1, the viability, T/C is 42.8%.
On the same count and under the same terms, as for `O=C(c1cc(Cc2n[nH]c(=O)c3ccccc23)ccc1F)N1CCN(C(=O)C2CC2)CC1` + Nc1ccc(C#CCN(C(=O)Cc2ncc(C(F)(F)F)cc2C(F)(F)F)c2ccc(F)cc2)nn1, the figure is 73.5%.

The same test, now with this note: second compound 0.1 µM; first compound 0.00316 µM; stronger effect = lower value.
On to `COc1cccc(OCCCN)c1-c1cc(Nc2cnc(C#N)cn2)n[nH]1` + Nc1ccc(C#CCN(C(=O)Cc2ncc(C(F)(F)F)cc2C(F)(F)F)c2ccc(F)cc2)nn1, for which the viability, T/C is 98.5%.

The test is the same for the next values; noted with them: second compound 0.1 µM; first compound 0.01 µM; stronger effect = lower value.
In the case of `COc1cccc(OCCCN)c1-c1cc(Nc2cnc(C#N)cn2)n[nH]1` + Nc1ccc(C#CCN(C(=O)Cc2ncc(C(F)(F)F)cc2C(F)(F)F)c2ccc(F)cc2)nn1, the viability, T/C was 75.1%.

Still in this test, the particulars now being: second compound 0.1 µM; first compound 0.0316 µM; stronger effect = lower value.
Turning to `CC1COCCN1c1cc(C2(S(C)(=N)=O)CC2)nc(-c2ccnc3[nH]ccc23)n1` (configuration not stated) + Nc1ccc(C#CCN(C(=O)Cc2ncc(C(F)(F)F)cc2C(F)(F)F)c2ccc(F)cc2)nn1, the viability, T/C is 98%.
Turning to `CCCS(=O)(=O)Nc1ccc(F)c(C(=O)c2c[nH]c3ncc(-c4ccc(Cl)cc4)cc23)c1F` + Nc1ccc(C#CCN(C(=O)Cc2ncc(C(F)(F)F)cc2C(F)(F)F)c2ccc(F)cc2)nn1, the viability, T/C is 114%.
With `COc1cccc(OCCCN)c1-c1cc(Nc2cnc(C#N)cn2)n[nH]1` + Nc1ccc(C#CCN(C(=O)Cc2ncc(C(F)(F)F)cc2C(F)(F)F)c2ccc(F)cc2)nn1, the viability, T/C is 57.9%.
On the same count and under the same terms, as for `O=C(c1cc(Cc2n[nH]c(=O)c3ccccc23)ccc1F)N1CCN(C(=O)C2CC2)CC1` + Nc1ccc(C#CCN(C(=O)Cc2ncc(C(F)(F)F)cc2C(F)(F)F)c2ccc(F)cc2)nn1, the figure is 95.3%.

Still in this test, the particulars now being: second compound 0.1 µM; first compound 0.1 µM; stronger effect = lower value.
On to `CC1COCCN1c1cc(C2(S(C)(=N)=O)CC2)nc(-c2ccnc3[nH]ccc23)n1` (configuration not stated) + Nc1ccc(C#CCN(C(=O)Cc2ncc(C(F)(F)F)cc2C(F)(F)F)c2ccc(F)cc2)nn1, for which the viability, T/C was 89%.
For `CCCS(=O)(=O)Nc1ccc(F)c(C(=O)c2c[nH]c3ncc(-c4ccc(Cl)cc4)cc23)c1F` + Nc1ccc(C#CCN(C(=O)Cc2ncc(C(F)(F)F)cc2C(F)(F)F)c2ccc(F)cc2)nn1, the viability, T/C is 98.7%.
In the case of `COc1cccc(OCCCN)c1-c1cc(Nc2cnc(C#N)cn2)n[nH]1` + Nc1ccc(C#CCN(C(=O)Cc2ncc(C(F)(F)F)cc2C(F)(F)F)c2ccc(F)cc2)nn1, the viability, T/C is 54.6%.
Take `O=C(c1cc(Cc2n[nH]c(=O)c3ccccc23)ccc1F)N1CCN(C(=O)C2CC2)CC1` + Nc1ccc(C#CCN(C(=O)Cc2ncc(C(F)(F)F)cc2C(F)(F)F)c2ccc(F)cc2)nn1: the viability, T/C is 112%.

Still in this test, the particulars now being: second compound 0.1 µM; first compound 0.316 µM; stronger effect = lower value.
As to `CC1COCCN1c1cc(C2(S(C)(=N)=O)CC2)nc(-c2ccnc3[nH]ccc23)n1` (configuration not stated) + Nc1ccc(C#CCN(C(=O)Cc2ncc(C(F)(F)F)cc2C(F)(F)F)c2ccc(F)cc2)nn1, the viability, T/C is 80.8%.
On to `CCCS(=O)(=O)Nc1ccc(F)c(C(=O)c2c[nH]c3ncc(-c4ccc(Cl)cc4)cc23)c1F` + Nc1ccc(C#CCN(C(=O)Cc2ncc(C(F)(F)F)cc2C(F)(F)F)c2ccc(F)cc2)nn1, for which the viability, T/C was 92.8%.
Turning to `COc1cccc(OCCCN)c1-c1cc(Nc2cnc(C#N)cn2)n[nH]1` + Nc1ccc(C#CCN(C(=O)Cc2ncc(C(F)(F)F)cc2C(F)(F)F)c2ccc(F)cc2)nn1, the viability, T/C is 45.8%.
As for `O=C(c1cc(Cc2n[nH]c(=O)c3ccccc23)ccc1F)N1CCN(C(=O)C2CC2)CC1` + Nc1ccc(C#CCN(C(=O)Cc2ncc(C(F)(F)F)cc2C(F)(F)F)c2ccc(F)cc2)nn1, the viability, T/C is 83.7%.

The test is the same for the next values; noted with them: second compound 0.1 µM; first compound 1 µM; stronger effect = lower value.
Regarding `CC1COCCN1c1cc(C2(S(C)(=N)=O)CC2)nc(-c2ccnc3[nH]ccc23)n1` (configuration not stated) + Nc1ccc(C#CCN(C(=O)Cc2ncc(C(F)(F)F)cc2C(F)(F)F)c2ccc(F)cc2)nn1, the viability, T/C was 56.1%.
With `CCCS(=O)(=O)Nc1ccc(F)c(C(=O)c2c[nH]c3ncc(-c4ccc(Cl)cc4)cc23)c1F` + Nc1ccc(C#CCN(C(=O)Cc2ncc(C(F)(F)F)cc2C(F)(F)F)c2ccc(F)cc2)nn1, the viability, T/C was 96.5%.
As for `COc1cccc(OCCCN)c1-c1cc(Nc2cnc(C#N)cn2)n[nH]1` + Nc1ccc(C#CCN(C(=O)Cc2ncc(C(F)(F)F)cc2C(F)(F)F)c2ccc(F)cc2)nn1, the viability, T/C is 46.2%.
Take `O=C(c1cc(Cc2n[nH]c(=O)c3ccccc23)ccc1F)N1CCN(C(=O)C2CC2)CC1` + Nc1ccc(C#CCN(C(=O)Cc2ncc(C(F)(F)F)cc2C(F)(F)F)c2ccc(F)cc2)nn1: the viability, T/C was 97.5%.

The same test, now with this note: second compound 0.1 µM; first compound 3.16 µM; stronger effect = lower value.
Regarding `CC1COCCN1c1cc(C2(S(C)(=N)=O)CC2)nc(-c2ccnc3[nH]ccc23)n1` (configuration not stated) + Nc1ccc(C#CCN(C(=O)Cc2ncc(C(F)(F)F)cc2C(F)(F)F)c2ccc(F)cc2)nn1, the viability, T/C is 51.5%.
On the same count and under the same terms, the same measure for `CCCS(=O)(=O)Nc1ccc(F)c(C(=O)c2c[nH]c3ncc(-c4ccc(Cl)cc4)cc23)c1F` + Nc1ccc(C#CCN(C(=O)Cc2ncc(C(F)(F)F)cc2C(F)(F)F)c2ccc(F)cc2)nn1: 69.6%; for `O=C(c1cc(Cc2n[nH]c(=O)c3ccccc23)ccc1F)N1CCN(C(=O)C2CC2)CC1` + Nc1ccc(C#CCN(C(=O)Cc2ncc(C(F)(F)F)cc2C(F)(F)F)c2ccc(F)cc2)nn1: 79.5%.

The test is the same for the next values; noted with them: second compound 0.1 µM; first compound 10 µM; stronger effect = lower value.
For `CC1COCCN1c1cc(C2(S(C)(=N)=O)CC2)nc(-c2ccnc3[nH]ccc23)n1` (configuration not stated) + Nc1ccc(C#CCN(C(=O)Cc2ncc(C(F)(F)F)cc2C(F)(F)F)c2ccc(F)cc2)nn1, the viability, T/C is 42.4%.
Regarding `CCCS(=O)(=O)Nc1ccc(F)c(C(=O)c2c[nH]c3ncc(-c4ccc(Cl)cc4)cc23)c1F` + Nc1ccc(C#CCN(C(=O)Cc2ncc(C(F)(F)F)cc2C(F)(F)F)c2ccc(F)cc2)nn1, the viability, T/C is 41.7%.
`O=C(c1cc(Cc2n[nH]c(=O)c3ccccc23)ccc1F)N1CCN(C(=O)C2CC2)CC1` + Nc1ccc(C#CCN(C(=O)Cc2ncc(C(F)(F)F)cc2C(F)(F)F)c2ccc(F)cc2)nn1: the viability, T/C is 66.6%.

Staying with this test, now noted: second compound 0.316 µM; first compound 0.00316 µM; stronger effect = lower value.
As for `COc1cccc(OCCCN)c1-c1cc(Nc2cnc(C#N)cn2)n[nH]1` + Nc1ccc(C#CCN(C(=O)Cc2ncc(C(F)(F)F)cc2C(F)(F)F)c2ccc(F)cc2)nn1, the viability, T/C was 99.6%.

The same test, now with this note: second compound 0.316 µM; first compound 0.01 µM; stronger effect = lower value.
`COc1cccc(OCCCN)c1-c1cc(Nc2cnc(C#N)cn2)n[nH]1` + Nc1ccc(C#CCN(C(=O)Cc2ncc(C(F)(F)F)cc2C(F)(F)F)c2ccc(F)cc2)nn1: the viability, T/C is 71.8%.

The same test, now with this note: second compound 0.316 µM; first compound 0.0316 µM; stronger effect = lower value.
For `CC1COCCN1c1cc(C2(S(C)(=N)=O)CC2)nc(-c2ccnc3[nH]ccc23)n1` (configuration not stated) + Nc1ccc(C#CCN(C(=O)Cc2ncc(C(F)(F)F)cc2C(F)(F)F)c2ccc(F)cc2)nn1, the viability, T/C was 89.5%.
On the same count and under the same terms, the same measure for `CCCS(=O)(=O)Nc1ccc(F)c(C(=O)c2c[nH]c3ncc(-c4ccc(Cl)cc4)cc23)c1F` + Nc1ccc(C#CCN(C(=O)Cc2ncc(C(F)(F)F)cc2C(F)(F)F)c2ccc(F)cc2)nn1: 105%.
Still for that read-out and setting: as for `COc1cccc(OCCCN)c1-c1cc(Nc2cnc(C#N)cn2)n[nH]1` + Nc1ccc(C#CCN(C(=O)Cc2ncc(C(F)(F)F)cc2C(F)(F)F)c2ccc(F)cc2)nn1, the figure is 49.9%; as for `O=C(c1cc(Cc2n[nH]c(=O)c3ccccc23)ccc1F)N1CCN(C(=O)C2CC2)CC1` + Nc1ccc(C#CCN(C(=O)Cc2ncc(C(F)(F)F)cc2C(F)(F)F)c2ccc(F)cc2)nn1, 110%.

The test is the same for the next values; noted with them: second compound 0.316 µM; first compound 0.1 µM; stronger effect = lower value.
On to `CC1COCCN1c1cc(C2(S(C)(=N)=O)CC2)nc(-c2ccnc3[nH]ccc23)n1` (configuration not stated) + Nc1ccc(C#CCN(C(=O)Cc2ncc(C(F)(F)F)cc2C(F)(F)F)c2ccc(F)cc2)nn1, for which the viability, T/C was 74.7%.
Still for that read-out and setting: as for `CCCS(=O)(=O)Nc1ccc(F)c(C(=O)c2c[nH]c3ncc(-c4ccc(Cl)cc4)cc23)c1F` + Nc1ccc(C#CCN(C(=O)Cc2ncc(C(F)(F)F)cc2C(F)(F)F)c2ccc(F)cc2)nn1, the figure is 101%; as for `COc1cccc(OCCCN)c1-c1cc(Nc2cnc(C#N)cn2)n[nH]1` + Nc1ccc(C#CCN(C(=O)Cc2ncc(C(F)(F)F)cc2C(F)(F)F)c2ccc(F)cc2)nn1, 49.9%; as for `O=C(c1cc(Cc2n[nH]c(=O)c3ccccc23)ccc1F)N1CCN(C(=O)C2CC2)CC1` + Nc1ccc(C#CCN(C(=O)Cc2ncc(C(F)(F)F)cc2C(F)(F)F)c2ccc(F)cc2)nn1, 115%.

Staying with this test, now noted: second compound 0.316 µM; first compound 0.316 µM; stronger effect = lower value.
For `CC1COCCN1c1cc(C2(S(C)(=N)=O)CC2)nc(-c2ccnc3[nH]ccc23)n1` (configuration not stated) + Nc1ccc(C#CCN(C(=O)Cc2ncc(C(F)(F)F)cc2C(F)(F)F)c2ccc(F)cc2)nn1, the viability, T/C is 81.8%.
Regarding `CCCS(=O)(=O)Nc1ccc(F)c(C(=O)c2c[nH]c3ncc(-c4ccc(Cl)cc4)cc23)c1F` + Nc1ccc(C#CCN(C(=O)Cc2ncc(C(F)(F)F)cc2C(F)(F)F)c2ccc(F)cc2)nn1, the viability, T/C was 87.4%.

For the origin of these results see PubChem BioAssay AID1963831 (Molecular Pharmacology Branch, DTP, NCI, 2024).
